Source: patent US20100087466A1, “NOVEL SMALL MOLECULE DNAK INHIBITORS” (priority 2008, published 2010)
In brackets after ≈: the same amount, converted by molar mass. Where a name gives a salt, the structure may show the parent alone. Read-outs that look alike come from different tables or passages of the source. Values belong to the compound of their own block, whether it stands above or below them. Non-standard residues stand in square brackets, D forms with d. Residues, ends and D or L forms follow the SMILES beside them. ξ: configuration not given here. *: point of attachment. Phe(4-NH2) = Nc1ccc(C[C@H](N)C(=O)O)cc1; 2Nal = N[C@@H](Cc1ccc2ccccc2c1)C(=O)O; Hyp = O=C(O)[C@@H]1C[C@@H](O)CN1; NH(CH2)3Ph = c1ccc(CCCN*)cc1; 2Pyrimidinyl = c1cnc(*)nc1; ξR = N=C(N)NCCCC(N)C(=O)O; Octanoyl = CCCCCCCC(=O)*; Orn = NCCC[C@H](N)C(=O)O; Piperidide = C1CCN(*)CC1; Cbz = O=C(OCc1ccccc1)*; Boc = CC(C)(C)OC(=O)*; Bn = c1ccc(C*)cc1

Key:
DnaK = DnaK (Escherichia coli, UniProt P0A6Y8); experiment: DnaK Inhibition Assay (DnaK induced refolding of denatured firefly luciferase); format: biochemical, E. coli; conditions: DnaK 200 nM, DnaJ 100 nM, GrpE 400 nM
Description: Inhibition of the bacterial DnaK chaperone system may be evaluated by inhibition of the DnaK induced refolding of denatured firefly luciferase. More specifically, firefly luciferase is denatured by treatment with 8N guanidium hydrochloride at room temperature for 30 mins and then 5° C. for 1 h. After dilution into cold MOPS buffer augmented with ATP (2.5 mM) and DTT (12.5 mM) and standing for a further hour, the denatured luciferase is refolded by addition to a mixture of chaperone proteins in MOPS buffer, resulting in a reaction mixture containing denatured luciferase (24 nM), DnaK (200 nM), DnaJ (100 nM) and GrpE (400 nM). The extent of refolding is determined by addition of a luciferase substrate and measurement of the emitted chemoluminescence. In this format the substrate is the commercially available luciferase “Steady-Glo” reagent from Promega, Inc. Inhibition of DnaK induced refolding is determined by premixing the chaperone proteins with the test agent at concentrations of test agent ranging from 1-100 μg/mL. The extent of refolding is compared to that with no test reagent, and the IC50 is estimated by fitting the data to a standard sigmoidal dose-response curve.
Inhibition of the bacterial DnaK chaperone system was evaluated by inhibition of the DnaK induced refolding of denatured firefly luciferase. Firefly luciferase was denatured by treatment with 8N guanidium hydrochloride at room temperature for 30 mins and then 5° C. for 1 h. After dilution into cold MOPS buffer augmented with ATP (2.5 mM) and DTT (12.5 mM) and standing for a further hour, the denatured luciferase was refolded by addition to a mixture of chaperone proteins in MOPS buffer, resulting in a reaction mixture containing denatured luciferase (24 nM), DnaK (200 nM), DnaJ (100 nM) and GrpE (400 nM). The extent of refolding was determined by addition of a luciferase substrate and measurement of the emitted chemoluminescence. In this format the substrate is the commercially available luciferase “Steady-Glo” reagent from Promega, Inc. Inhibition of DnaK induced refolding was determined by premixing the chaperone proteins with the test agent at concentrations of test agent ranging from 1-100 μg/mL. The extent of refolding was compared to that with no test reagent, and the IC50 was estimated by fitting the data to a standard sigmoidal dose-response curve.
IC50 is defined as the concentration in μM at which 50% inhibition of DnaK induced refolding of denatured firefly luciferase occurs.

E. coli (ATCC 25922) = experiment: Antibacterial activity against E. coli (MIC); format: cell-based; conditions: Escherichia coli, ATCC25922
[1] = read-out: DnaK IC50(μg/ml) (converted)

Sequence of DnaK (P0A6Y8 2-638): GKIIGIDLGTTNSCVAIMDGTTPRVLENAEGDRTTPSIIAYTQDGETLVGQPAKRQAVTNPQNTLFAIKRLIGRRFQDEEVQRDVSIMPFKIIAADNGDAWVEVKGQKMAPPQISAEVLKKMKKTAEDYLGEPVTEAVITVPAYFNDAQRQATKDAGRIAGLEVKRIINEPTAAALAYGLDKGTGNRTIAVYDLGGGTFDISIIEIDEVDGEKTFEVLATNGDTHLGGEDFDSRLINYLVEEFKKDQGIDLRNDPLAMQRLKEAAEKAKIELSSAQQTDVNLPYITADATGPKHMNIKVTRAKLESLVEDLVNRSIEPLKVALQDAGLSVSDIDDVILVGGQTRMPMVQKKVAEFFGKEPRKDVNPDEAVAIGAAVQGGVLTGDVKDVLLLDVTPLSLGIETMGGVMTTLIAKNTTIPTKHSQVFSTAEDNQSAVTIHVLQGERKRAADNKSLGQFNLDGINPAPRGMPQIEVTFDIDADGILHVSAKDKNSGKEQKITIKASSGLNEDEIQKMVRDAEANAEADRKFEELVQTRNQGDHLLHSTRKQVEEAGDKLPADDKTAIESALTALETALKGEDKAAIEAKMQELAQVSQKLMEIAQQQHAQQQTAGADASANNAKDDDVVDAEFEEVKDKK

SMILES: CCCCCCCC(=O)N[C@@H](Cc1ccc(OCc2ccccc2)cc1)C(=O)N[C@@H](CC(C)C)C(=O)N1CCC[C@H]1C(=O)N1CC[C@H](NC(=N)N)C1 [Structure 29, Octanoyl-Tyr(Bzl)-Leu-Pro-(S)-(3-guanidino)pyrrolidinyl amide]
IC50 (DnaK; read-out: DnaK IC50): 10 µM
IC50 (DnaK; [1]): 11.1 µM
MIC (E. coli (ATCC 25922)): 32 µg/mL (≈ 44.6 µM)

SMILES: CCC(C)[C@H](NC(=O)[C@H](Cc1ccc(O)cc1)NC(C)=O)C(=O)N[C@@H](CO)C(=O)O (stereo partly drawn) [Structure 24, Ac-Tyr-Ile-Ser-OH]
IC50 (DnaK; read-out: DnaK IC50): 240 µM
IC50 (DnaK; [1]): 309 µM

SMILES: CCC(C)[C@H](NC(=O)[C@H](Cc1ccc(O)cc1)NC(C)=O)C(=O)N[C@@H](CO)C(=O)OC (stereo partly drawn) [Structure 23, Ac-Tyr-Ile-Ser-OMe]
IC50 (DnaK; read-out: DnaK IC50): 101 µM
IC50 (DnaK; [1]): 530 µM

SMILES: COC(=O)[C@@H]1CCCN1C(=O)[C@H](CC(C)C)NC(=O)[C@H](Cc1ccc2ccccc2c1)NC(C)=O [Structure 8, Ac-2-Nal-Leu-Pro-OMe] (Ac-[2Nal]-Leu-Pro-OMe)
IC50 (DnaK; read-out: DnaK IC50): 30 µM
IC50 (DnaK; [1]): 127 µM

SMILES: CC(=O)N[C@@H](Cc1ccc(O)cc1)C(=O)N[C@@H](CC(C)C)C(=O)N1CCC[C@H]1C(=O)N[C@@H](CCCNC(=O)OC(C)(C)C)C(=O)N1CCC[C@H]1C(=O)NCCCc1ccccc1 [Structure 18, Ac-Tyr-Leu-Pro-Orn(Boc)-Pro-NH(CH2)3Ph] (Ac-YLP[Orn](Boc)P-{NH(CH2)3Ph})
IC50 (DnaK; read-out: DnaK IC50): 54 µM
IC50 (DnaK; [1]): 63.8 µM

MIC (E. coli (ATCC 25922)): > 256 µg/mL
SMILES: CC(=O)N[C@@H](Cc1ccc(O)cc1)C(=O)N[C@@H](CC(C)C)C(=O)N1CCC[C@H]1C(=O)NC(CCCNC(=N)N)C(N)=O (stereo partly drawn) [Structure 34] (Ac-YLP[ξR]-NH2)

SMILES: CC(=O)N[C@@H](Cc1ccc(OCc2ccccc2)cc1)C(=O)N[C@@H](CC(C)C)C(=O)N1CCC[C@H]1C(=O)NCCCCN [Structure 5, Ac-Tyr(Bzl)-Leu-Pro-NH(CH2)4NH2.TFA]
IC50 (DnaK; read-out: DnaK IC50): 45 µM
IC50 (DnaK; [1]): 106 µM

SMILES: CC(=O)N[C@@H](Cc1ccc(OCc2ccccc2)cc1)C(=O)N[C@@H](CC(C)C)C(=O)N1CCC[C@H]1C(=O)N[C@@H](CCCNc1ncccn1)C(=O)N1CCC[C@H]1C(=O)NCCCc1ccccc1 [Structure 21, Ac-Tyr(Bzl)-Leu-Pro-Orn(2-pyrimidine)-Pro-NH(CH2)3Ph] (Ac-Y(Bn)LP[Orn](2Pyrimidinyl)P-{NH(CH2)3Ph})
IC50 (DnaK; read-out: DnaK IC50): 22 µM
IC50 (DnaK; [1]): 22.6 µM

SMILES: COC(=O)[C@@H]1CCCN1C(=O)[C@H](CC(C)C)NC(=O)[C@H](Cc1ccc(NC(=O)OCc2ccccc2)cc1)NC(C)=O [Structure 6, Ac-4-(NHCbz)Phe-Leu-Pro-OMe] (Ac-[Phe(4-NH2)](Cbz)-Leu-Pro-OMe)
IC50 (DnaK; read-out: DnaK IC50): 147 µM
IC50 (DnaK; [1]): 420 µM

SMILES: CCCCCCCC(=O)N[C@@H](Cc1ccc(OCc2ccccc2)cc1)C(=O)N[C@@H](CC(C)C)C(=O)N1C[C@H](O)C[C@H]1C(=O)N[C@H](CCCNC(=N)N)C(=O)N1CCCCC1 [Structure 32, Octanoyl-Tyr(Bzl)-Leu-Hyp-ArgN(CH2)5 trifluoroacetate] (Octanoyl-Y(Bn)L[Hyp][dR]-Piperidide)
IC50 (DnaK; read-out: DnaK IC50): 12 µM
IC50 (DnaK; [1]): 14.2 µM
MIC (E. coli (ATCC 25922)): 64 µg/mL

SMILES: CCCCCCCC(=O)N[C@@H](Cc1ccc(OCc2ccccc2)cc1)C(=O)N[C@@H](CC(C)C)C(=O)N1CCC[C@H]1C(=O)NCCNC(=N)N [Structure 30, Octanoyl-Tyr(Bzl)-Leu-Pro-NH(CH2)2 NH—C(═NH)—NH2 trifluoroacetate]
IC50 (DnaK; read-out: DnaK IC50): 19 µM
IC50 (DnaK; [1]): 21.7 µM
MIC (E. coli (ATCC 25922)): 32 µg/mL

SMILES: CC(=O)N[C@@H](Cc1ccc(O)cc1)C(=O)N[C@@H](CC(C)C)C(=O)N1CCC[C@H]1C(=O)N[C@@H](CCCNC(=N)N)C(=O)N1CCCCC1 [Structure 4, Ac-Tyr-Leu-Pro-Arg-N(CH2)5.TFA] (Ac-YLPR-Piperidide)
IC50 (DnaK; read-out: DnaK IC50): 3 µM
IC50 (DnaK; [1]): 6.09 µM

SMILES: CC(=O)N[C@@H](Cc1ccc(OCc2ccccc2)cc1)C(=O)N[C@@H](CC(C)C)C(=O)N1CCC[C@H]1C(=O)N[C@@H](CCCNC(=N)N)C(=O)N1CCCCC1 [Structure 14] (Ac-Y(Bn)LPR-Piperidide)
IC50 (DnaK; read-out: DnaK IC50): 25 µM
IC50 (DnaK; [1]): 37.5 µM

SMILES: CC(=O)N[C@@H](Cc1ccc(O)cc1)C(=O)N[C@@H](CC(C)C)C(=O)N1CCC[C@H]1C(=O)N[C@@H](CCCN)C(=O)N1CCC[C@H]1C(=O)NCCCc1ccccc1 [Structure 19, Ac-Tyr-Leu-Pro-Orn-Pro-NH(CH2)3Ph] (Ac-YLP[Orn]P-{NH(CH2)3Ph})
IC50 (DnaK; read-out: DnaK IC50): 40 µM
IC50 (DnaK; [1]): 60.4 µM
